Target: T1, Neutrophil elastase (Homo sapiens, UniProt P08246)
T1 sequence (P08246 whole entry): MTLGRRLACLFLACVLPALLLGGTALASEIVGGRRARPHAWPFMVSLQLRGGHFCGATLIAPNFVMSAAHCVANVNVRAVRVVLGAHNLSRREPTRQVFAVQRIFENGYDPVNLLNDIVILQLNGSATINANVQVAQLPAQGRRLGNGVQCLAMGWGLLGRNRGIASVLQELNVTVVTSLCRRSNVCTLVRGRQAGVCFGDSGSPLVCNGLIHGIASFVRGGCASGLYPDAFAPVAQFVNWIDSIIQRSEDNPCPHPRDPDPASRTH
Assay: Inhibitory activity against human sputum elastase (HSE)

| SMILES | IC50 [nM] |
| --- | --- |
| CO[C@H]1C(=O)N2C(C(=O)OC(C)(C)C)=C(C)C(=C3SCC(O)CS3)S(=O)(=O)C12 (stereo not given in full) | 330 |
| CO[C@H]1C(=O)N2C(C(=O)OC(C)(C)C)=C(C)C(=C3SCC(OC(C)=O)CS3)S(=O)(=O)C12 (stereo not given in full) | 320 |
| CO[C@H]1C(=O)N2C(C(=O)OC(C)(C)C)=C(C)C(=C3SCCS3)S(=O)(=O)C12 (stereo not given in full) | 380 |
| CO[C@H]1C(=O)N2C(C(=O)OC(C)(C)C)=C(C)C(=C(SC)SC)S(=O)(=O)C12 (stereo not given in full) | 74 |
| CO[C@H]1C(=O)N2C(C(=O)OC(C)(C)C)=C(C)CS(=O)(=O)C12 (stereo not given in full) | 1800 |
